Legend:
[1] = system: hCD34+ hematopoietic progenitors; experiment: In vitro toxicity of natural estrogens for hematopoietic progenitors (hCD34+ culture, FACS subsets); assay type: cell-based, human; conditions: for toxicity for hematopoietic progenitor subpopulations: 10 nM to 500 μM, in vitro; for % CD34+/CD38− / % HSC / % MLP / % MPP: four days culture
Method: FIG. 9 relates the effect of different concentration of E1, E2, E3 and E4 in human hematopoietic progenitors. Human hematopoietic progenitors were culture in phenol red free media supplemented with 100 ng/mL SCF, 100 ng/ml FLT3L and 100 ng/ml TPO and different concentration of E1, E2, E3 and E4 (from 10 nM to 500 μM). FIG. 9A represents the fold increase of the number of hematopoietic cells after four days in culture. FIG. 9B indicates the total number of primitive hematopoietic progenitors (CD34^+/CD38^−) present in the culture, extrapolated from number of cells and the frequency of this population analyzed by FACS. […] Grey dashed lines point the value of control group, and red dashed lines indicate the initial values at day 0. (Kruskal-Wallis test; P<0.05, data from four independent experiments).
To assess the toxicity of the natural estrogens (E1, E2, E3 and E4) for hematopoietic progenitors, in vitro studies were performed. 5×10^4 hCD34^+ were cultured in a phenol red-free media, X-Vivo 20 (Lonza), in presence of 100 ng/ml SCF, 100 ng/ml FLT3L, 100 ng/ml TPO, 0.5% PS, 1% Glutamax (Thermofisher) and different concentrations of E1, E2, E3 or E4 (from 10 nM to 500 μM). Cell proliferation and immunophenotype of different hematopoietic subsets (CD34^+/CD38^−, HSC [CD34^+/CD38^−/CD45RA^−/CD90^+], Multipotent Progenitors [MPP, CD34^+/CD38^−/CD45RA^−/CD90^−], Multipotent Lymphoid Progenitors [MLP, CD34^+/CD38^−/CD45RA^+] were evaluated at day 0 and four days after culture.

[2] = system: human cord blood CD34+; experiment: Human engraftment in female NSG mice transplanted with a limited CD34+ cell dose (5×10^3); assay type: in vivo, mouse; conditions: low dose 5×10^3 hCD34+, mean +/− SEM
From the text: FIG. 7A indicates human hematopoietic reconstitution after four months. […] However, in spite of this presence of endogenous estrogens, the human engraftment in female recipients was increased after E2 and more importantly after E4 treatment. FIG. 7B relates the presence of primitive hematopoietic progenitors was higher in the female mice treated with estrogens, which indicated the quality of the reconstitution. (Kruskal-Wallis test; P<0.05, 4 mice per group). […] Three-four months later, the animals were sacrificed and the human hematopoietic engraftment was analyzed by FACS. Human hematopoietic population was identified as the cells positive for hCD45-APC-Cy7 (Biolegend) and negative for mouse CD45.1-PE (Biolegend). To assess whether estrogen can improve hematopoietic reconstitution in female recipients, female NSG were irradiated and transplanted by a low doses of human cord blood CD34^+ (5×10^3 hCD34^+). The human engraftment was analyzed as described in Example 1. […] However, in spite of this presence of endogenous estrogens, the human engraftment in female recipients was increased after E2 and more importantly after E4 treatment.

[3] = system: human cord-blood CD34+ cells; experiment: Human hematopoietic engraftment in male NSG mice transplanted with 5×10^4 human cord-blood CD34+ cells; assay type: in vivo, mouse; conditions: male NSG, 5×10^4 CD34+, 2 μg daily for four days, mean +/− SEM
Method: Three-four months later, the animals were sacrificed and the human hematopoietic engraftment was analyzed by FACS. Human hematopoietic population was identified as the cells positive for hCD45-APC-Cy7 (Biolegend) and negative for mouse CD45.1-PE (Biolegend). In order to further examine the effect of the estrogen in HSCT, hematopoietic progenitors (hCD34+) and hematopoietic stem cells (hCD34+/hCD38−) were analyzed by FACS inside of the human population in the treated NSG described in Example 1.

[4] = system: human cord blood CD34+; experiment: Human engraftment in male NSG mice transplanted with a limited CD34+ cell dose (5×10^3); assay type: in vivo, mouse
Method: FIG. 6A indicates the level of human engraftment, which was raised by E4 administration. […] (Kruskal-Wallis test; P=0.1150, 7-10 mice per group). […] Three-four months later, the animals were sacrificed and the human hematopoietic engraftment was analyzed by FACS. Human hematopoietic population was identified as the cells positive for hCD45-APC-Cy7 (Biolegend) and negative for mouse CD45.1-PE (Biolegend). To determine whether estrogen can improve hematopoietic reconstitution of low number of hematopoietic progenitors, male NSG were irradiated and transplanted with low doses of human cord blood CD34+ (5×103 hCD34+). The human engraftment was analyzed as described in Example 1.

[5] = system: human hematopoietic progenitors (CB-CD34+); experiment: LTC-IC human bone marrow-like co-culture (hMSC + hCD34+) and CFU assay; assay type: cell-based
Method: LTC-IC was established through the co-culture of human bone marrow Mesenchymal Stromal Cells (BM-MSC) and human progenitors (CB-CD34+) to research the positive effects of the estrogens in a human context, such as an in vitro human bone marrow model. LTC-ICs were treated with vehicle or 100 µM of E2 or E4 for a week. […] Cells were plated in methycellulose media with specific hematopoietic cytokines to evaluate the hematopoietic progenitor content. After 14 days, colony forming units (CFU) were counted. Data were normalized to control groups. […] 1×10^5 human mesenchymal stromal cells (hMSC) were seeded in a p6 well and irradiated with 30 Gy next day. The following day, 5×10^4 hCD34^+ were added to the hMSC in LTC-IC media: 75% α-MEM without Phenol Red (Life Technologies), 12.5% Hyclone FBS (GE Healthcare), HS (Life Technologies), β-mercaptoethanol (Life Technologies), 0.5% PS and 1×10^−6 M Hydrocortisone (Sigma-Aldrich). 100 μM of estrogens, dissolved in ethanol, was added to the co-culture for a week, and then the cells were collected and the amount of human hematopoietic progenitors were evaluated in semisolid media supplement with specific hematopoietic cytokines (H4535, StemCell Technologies) plus 8 U/ml hEPO. After fourteen days, colony-forming units (CFU) were evaluated and normalized to the control: […]

[6] = 100 μM for a week, versus vehicle

Row | Compound | toxicity for hematopoietic progenitor subpopulations [1] | % CD34+/CD38− ([1]; 10 nM) | % HSC ([1]; 10 nM) | % MLP ([1]; 10 nM) | % MPP ([1]; 10 nM) | % CD34+/CD38− ([1]; 100 nM) | % HSC ([1]; 100 nM) | % MLP ([1]; 100 nM) | % MPP ([1]; 100 nM) | % CD34+/CD38− ([1]; 1 μM) | % HSC ([1]; 1 μM) | % MLP ([1]; 1 μM) | % MPP ([1]; 1 μM) | % CD34+/CD38− ([1]; 10 μM) | % HSC ([1]; 10 μM) | % MLP ([1]; 10 μM) | % MPP ([1]; 10 μM) | % HSC ([1]; 100 μM) | % MLP ([1]; 100 μM) | % MPP ([1]; 100 μM) | further results
1 | C[C@]12CC[C@@H]3c4ccc(O)cc4CC[C@H]3[C@@H]1C[C@@H](O)[C@@H]2O [E3, estriol] | more toxic | 14.77 ± 0.41% | 1.87 ± 0.09% | 4.94 ± 0.70% | 5.75 ± 0.21% | 18.28 ± 1.30% | 2.28 ± 0.03% | 6.46 ± 0.83% | 7.25 ± 0.46% | 14.96 ± 0.57% | 4.94 ± 2.86% | 2.72 ± 2.38% | 5.57 ± 0.12% | 15.89 ± 0.62% | 1.95 ± 0.13% | 5.24 ± 0.65% | 6.18 ± 0.47% | 4.13% | 0.15% | 6.44% | % CD34+/CD38− ([1]; 500 μM): 17.92 ± 2.56%; % HSC ([1]; 500 μM): 3.70 ± 1.51%; % MLP ([1]; 500 μM): 4.73 ± 1.60%; % MPP ([1]; 500 μM): 7.61 ± 2.91%
2 | C[C@]12CC[C@@H]3c4ccc(O)cc4CC[C@H]3[C@@H]1CCC2=O [E1, estrone] | more toxic | 12.32 ± 2.72% | 2.19 ± 0.65% | 3.32 ± 1.90% | 4.69 ± 0.88% | 12.91 ± 5.83% | 2.12 ± 0.29% | 4.12 ± 3.56% | 4.37 ± 1.47% | 10.11 ± 2.31% | 2.31 ± 0.45% | 1.80 ± 0.92% | 4.48 ± 1.50% | 10.54 ± 3.34% | 2.25 ± 0.41% | 2.92 ± 2.12% | 3.66 ± 0.89% | 0.67% | 4.46% | 3.86% | % CD34+/CD38− ([1]; 100 μM): 11.02%; % CD34+/CD38− ([1]; 500 μM): 14.80 ± 4.62%; % HSC ([1]; 500 μM): 1.75 ± 0.51%; % MLP ([1]; 500 μM): 4.64 ± 3.09%; % MPP ([1]; 500 μM): 5.87 ± 1.34%
3 | C[C@]12CC[C@@H]3c4ccc(O)cc4CC[C@H]3[C@@H]1CC[C@@H]2O [E2, 17β-estradiol] | more toxic | 11.99 ± 0.99% | 1.52 ± 0.24% | 4.23 ± 0.82% | 4.33 ± 0.33% | 10.74 ± 0.29% | 4.25 ± 2.95% | 3.72 ± 0.31% | 3.20 ± 0.76% | 13.43 ± 0.60% | 1.59 ± 0.15% | 3.98 ± 0.14% | 5.62 ± 0.74% | 17.52 ± 2.19% | 1.86 ± 0.12% | 6.79 ± 1.96% | 4.97 ± 0.23% | 4.50 ± 1.91% | 1.76 ± 0.66% | 7.08 ± 1.80% | % CD34+/CD38− ([1]; 100 μM): 14.52 ± 2.88%; % CD34+/CD38− ([1]; 500 μM): 11.93 ± 2.95%; % HSC ([1]; 500 μM): 3.97 ± 2.39%; % MLP ([1]; 500 μM): 1.01 ± 0.24%; % MPP ([1]; 500 μM): 6.96 ± 2.54%; Percentage of hematopoietic stem cells (hCD34+/hCD38−) in the human hematopoietic population [2]: 0.34 +/− 0.12 (n = 3) %; Percentage of human hematopoietic reconstitution [2]: 23.90 +/− 4.65 (n = 3) %; Percentage in the human hematopoietic population: hematopoietic stem cells ([3]; hCD34+/hCD38−): 0.52 +/− 0.07 (n = 13) %; Percentage in the human hematopoietic population: hematopoietic progenitors ([3]; hCD34+): 9.35 +/− 0.86 (n = 13) %; Percentage of human hematopoietic reconstitution ([3]; three-four months later): 46.05 +/− 5.98 (n = 13) %; Percentage in the human hematopoietic population: Lymphoid ([3]; CD19+): 82.26 +/− 2.14 (n = 9) %; Percentage in the human hematopoietic population: Myeloid ([3]; CD33+): 8.42 +/− 0.88 (n = 9) %; proportion of engrafted mice (human engraftment above 0.1%) ([4]; 5×10^3 CB-CD34+): 70%; change of the proportion of engrafted mice versus vehicle ([4]; limited HPC dose, engraftment above 0.1%): almost tripled; Percentage of human hematopoietic reconstitution ([4]; low dose 5×103 hCD34+, mean +/− SEM): 2.12 +/− 1.05 (n = 10) %; Normalized human CFU ([5]; 100 μM estrogen for a week, CFU after fourteen days, normalized to control, mean +/− SEM): 1.50 +/− 0.21 (n = 6); number of hematopoietic cells in LTC-IC [5, 6]: reduced; total number of primitive hematopoietic progenitors in LTC-IC [5, 6]: did not change
